Test results as given in patent publication US20150031102A1, “METHODS AND COMPOSITIONS FOR ENHANCED PRODUCTION OF BUTANOL BY CLOSTRIDIA” (Butrolix LLC, priority 2012, published 2015).
Marks after values point to notes of the source that are not given here.

Test system: C. acetobutylicum
Test: Continuous culture, 2.5 L, dilution rate 0.01 per hour, 20 days (butanol, residual glucose, optical density, pH, yield, productivity)
Type: cell-based, Clostridium acetobutylicum
Details: for Optical density (600 nm): 50 nM BP110517 and its control; for Productivity / Yield / Butanol: 50 nM peptide, Table 53; for Butanol: average ± SD of triplicate samples; for Average Butanol / Average Glucose: Treated (50 nM)
Protocol: Lastly, 2.5 L continuous culture studies were conducted using the optimum peptide treatment level that was determined by the sequential batch transfer experiments. An untreated and a peptide-treated culture were grown in parallel, identical vessels with identical dilution rates for 20 days. The continuous cultures were initiated by inoculating 2.25 L of sterile medium in each culture vessel using 250 mL of peptide-treated and untreated batch cultures that had been grown for 24 hours. The batch cultures used as inoculum were the third of sequential batch transfer cultures, which made inoculation of the continuous cultures the fourth sequential transfer. After inoculation, the continuous cultures were grown for 24 hours before beginning to feed fresh medium at a rate of 0.01 volumes per hour. Triplicate samples were taken from each continuous culture every 24 hours. Optical density of the replicates was measured and culture supernatants were recovered following centrifugation and analyzed later for butanol and residual glucose concentrations. The analyses were used to calculate yield and productivity of the cultures.
Clostridium acetobutylicum strain ATCC 824 was used in all experiments and the growth medium used for sequential batch transfer, time course, and continuous culture experiments contained yeast extract, casamino acids, L-cysteine, L-asparagine, phosphate buffer, trace minerals, and 6% glucose. What are believed to be quorum-sensing peptides that were used in the experiments were chemically synthesized peptides SEQ ID NO: 143 (amino acid sequence: SYPGWSW) and SEQ ID NO: 144 (amino acid sequence: ILILISG). Routine growth of the bacteria as well as the sequential batch and time course experiments were conducted in a Form a Scientific Model 1029 anaerobic gas chamber at 32° C. Continuous cultures were performed at 32° C. using duplicate New Brunswick Scientific BioFlo 3000 apparati with a dilution rate of 0.01 volume per hour, 75 rpm agitation, and nitrogen gas sparging. Optical density of culture samples was measured at 600 nm in a Beckman DU 600 series spectrophotometer and glucose was analyzed using a YSI Model 2700 Select Biochemistry Analyzer with internal glucose calibration. Butanol concentrations were determined by measuring experimental and standard samples using a Varian Saturn 3 Gas Chromatograph/Mass Spectrometer and calculating butanol concentrations using standard curves.
Data from continuous cultures using a 6% glucose medium in vessels with a working volume of 2.5 L run at a dilution rate of 0.01 per hour. Two vessels were run in parallel, one of which was treated with 50 nM of peptide SEQ ID NO: 143 and the other was untreated. The vessels were sparged continuously with nitrogen gas to maintain anaerobic conditions and were agitated at 75 rpm. On Day 0, the vessels were inoculated with a 1/10 volume (250 mL) of overnight cultures that were either treated with peptide or untreated, and that were the third transfer of the cultures, which made inoculation of the continuous cultures the fourth transfer. Triplicate samples were collected aseptically from each vessel immediately after inoculation and every 24 hours thereafter. The cultures were allowed to grow for 24 hours prior to beginning to feed fresh medium, and were maintained for 20 days each, without pH control. The optical density of each sample was measured immediately at 600 nm, the samples were centrifuged to remove cells, and the cell-free supernatants were frozen for later analysis. A representative experiment is shown in FIG. 19 and Tables 34 and 35.
Using the optimum peptide treatment level that was determined by the sequential batch transfer experiments, 2.5 L continuous culture studies were conducted. An untreated and a peptide-treated culture were grown in parallel, identical vessels using the same dilution rates for 20 days for each of the peptides BP110517 and BP1106213. […]

[1] = 50 nM BP110517, last five days of culture
[2] = 24 hour period preceding day 10
[3] = 24 hour period preceding day 11
[4] = 24 hour period preceding day 12
[5] = 24 hour period preceding day 13
[6] = 24 hour period preceding day 14
[7] = 24 hour period preceding day 15
[8] = 24 hour period preceding day 16
[9] = 24 hour period preceding day 17
[10] = 24 hour period preceding day 18
[11] = 24 hour period preceding day 19
[12] = 24 hour period preceding day 20

SYPGWSW [peptide SEQ ID NO: 143] was tested, and the “Butanol content compared with the control” value (50 nM BP110517, between days 5 and 9) was “significantly more butanol than the control”, the “Butanol content compared with the control” value [1] was “significantly greater than the control” and the “Butanol level lower than earlier in the culture period” value [1] was “roughly 75%”. For the same substance, the “Optical density (600 nm)” value (after day 13, recovered after day 17) was “less than 0.500”, the “Optical density (600 nm)” value (first 9 days) was “around 2.0” and the Productivity (24 hour period preceding day 1) was 0.53 g Butanol/L-h. It also gave a Yield (24 hour period preceding day 1) of 0.19 g Butanol/g Glucose, a Productivity (24 hour period preceding day 2) of −0.17 g Butanol/L-h and a Yield (24 hour period preceding day 2) of −0.28 g Butanol/g Glucose. The Productivity (24 hour period preceding day 3) was 0.07 g Butanol/L-h, the Yield (24 hour period preceding day 3) was 0.11 g Butanol/g Glucose and the Productivity (24 hour period preceding day 4) was 0.29 g Butanol/L-h. It also gave a Yield (24 hour period preceding day 4) of 0.46 g Butanol/g Glucose, a Productivity (24 hour period preceding day 5) of 0.24 g Butanol/L-h and a Yield (24 hour period preceding day 5) of 0.39 g Butanol/g Glucose. It also gave a Productivity (24 hour period preceding day 6) of 0.07 g Butanol/L-h, a Yield (24 hour period preceding day 6) of 0.11 g Butanol/g Glucose and a Productivity (24 hour period preceding day 7) of 0.14 g Butanol/L-h. It also gave a Yield (24 hour period preceding day 7) of 0.23 g Butanol/g Glucose, a Productivity (24 hour period preceding day 8) of 0.06 g Butanol/L-h and a Yield (24 hour period preceding day 8) of 0.10 g Butanol/g Glucose. It also gave a Productivity (24 hour period preceding day 9) of 0.07 g Butanol/L-h, a Yield (24 hour period preceding day 9) of 0.11 g Butanol/g Glucose and a Productivity [2] of 0.00 g Butanol/L-h. It also gave a Yield [2] of 0.01 g Butanol/g Glucose, a Productivity [3] of 0.20 g Butanol/L-h and a Yield [3] of 0.33 g Butanol/g Glucose. For the same substance, the Productivity [4] was 0.02 g Butanol/L-h, the Yield [4] was 0.04 g Butanol/g Glucose and the Productivity [5] was −0.11 g Butanol/L-h. It also gave a Yield [5] of −0.18 g Butanol/g Glucose, a Productivity [6] of 0.00 g Butanol/L-h and a Yield [6] of 0.00 g Butanol/g Glucose. For the same substance, the Productivity [7] was 0.03 g Butanol/L-h, the Yield [7] was 0.05 g Butanol/g Glucose and the Productivity [8] was 0.11 g Butanol/L-h. The Yield [8] was 0.17 g Butanol/g Glucose, the Productivity [9] was −0.01 g Butanol/L-h and the Yield [9] was −0.02 g Butanol/g Glucose. The Productivity [10] was 0.01 g Butanol/L-h, the Yield [10] was 0.01 g Butanol/g Glucose and the Productivity [11] was 0.06 g Butanol/L-h. It also gave a Yield [11] of 0.09 g Butanol/g Glucose, a Productivity [12] of 0.01 g Butanol/L-h and a Yield [12] of 0.01 g Butanol/g Glucose. It also gave a Butanol (day 0) of 0.9 ± 0.0 g/L, a Butanol (day 1) of 12.8 ± 4.4 g/L and a Butanol (day 2) of 5.5 ± 0.7 g/L. For the same substance, the Butanol (day 3) was 5.8 ± 1.7 g/L, the Butanol (day 4) was 11.2 ± 5.3 g/L and the Butanol (day 5) was 14.2 ± 0.3^c g/L. The Butanol (day 6) was 12.3 ± 0.6^c g/L, the Butanol (day 7) was 12.6 ± 0.0^c g/L and the Butanol (day 8) was 11.0 ± 0.4 g/L. The Butanol (day 9) was 9.9 ± 0.3^c g/L, the Butanol (day 10) was 7.6 ± 0.3 g/L and the Butanol (day 11) was 10.6 ± 0.7 g/L. It also gave a Butanol (day 12) of 8.5 ± 2.8 g/L, a Butanol (day 13) of 3.6 ± 0.2 g/L and a Butanol (day 14) of 2.7 ± 0.4 g/L. The Butanol (day 15) was 2.8 ± 0.6 g/L, the Butanol (day 16) was 4.7 ± 0.1^c g/L and the Butanol (day 17) was 3.3 ± 0.2^c g/L. For the same substance, the Butanol (day 18) was 2.7 ± 0.0^c g/L, the Butanol (day 19) was 3.4 ± 0.1^c g/L and the Butanol (day 20) was 2.7 ± 0.2^c g/L. For the same substance, the “Effect on butanol yield and productivity” value (BP110517, continuous cultures (summary of findings)) was “increased butanol yield and productivity”, the “Average Butanol” value (day 0) was 0.91 g/L and the “Average Glucose” value (day 0) was 66.1 g/L. The “Average Butanol” value (day 1) was 12.81 g/L, the “Average Glucose” value (day 1) was 28.2 g/L and the “Average Butanol” value (day 2) was 5.54 g/L. For the same substance, the “Average Glucose” value (day 2) was 3.3 g/L, the “Average Butanol” value (day 3) was 5.78 g/L and the “Average Glucose” value (day 3) was 3.1 g/L. The “Average Butanol” value (day 4) was 11.22 g/L, the “Average Glucose” value (day 4) was 2.4 g/L and the “Average Butanol” value (day 5) was 14.19 g/L. The “Average Glucose” value (day 5) was 0.0 g/L, the “Average Butanol” value (day 6) was 12.27 g/L and the “Average Glucose” value (day 6) was 0.0 g/L. The “Average Butanol” value (day 7) was 12.64 g/L, the “Average Glucose” value (day 7) was 0.4 g/L and the “Average Butanol” value (day 8) was 10.95 g/L. For the same substance, the “Average Glucose” value (day 8) was 0.0 g/L, the “Average Butanol” value (day 9) was 9.89 g/L and the “Average Glucose” value (day 9) was 2.3 g/L. For the same substance, the “Average Butanol” value (day 10) was 7.55 g/L, the “Average Glucose” value (day 10) was 13.4 g/L and the “Average Butanol” value (day 11) was 10.55 g/L. The “Average Glucose” value (day 11) was 6.1 g/L, the “Average Butanol” value (day 12) was 8.46 g/L and the “Average Glucose” value (day 12) was 0.0 g/L. The “Average Butanol” value (day 13) was 3.63 g/L, the “Average Glucose” value (day 13) was 2.0 g/L and the “Average Butanol” value (day 14) was 2.73 g/L. For the same substance, the “Average Glucose” value (day 14) was 14.2 g/L, the “Average Butanol” value (day 15) was 2.82 g/L and the “Average Glucose” value (day 15) was 23.8 g/L. The “Average Butanol” value (day 16) was 4.71 g/L, the “Average Glucose” value (day 16) was 29.2 g/L and the “Average Butanol” value (day 17) was 3.32 g/L. The “Average Glucose” value (day 17) was 30.4 g/L, the “Average Butanol” value (day 18) was 2.68 g/L and the “Average Glucose” value (day 18) was 40.1 g/L. For the same substance, the “Average Butanol” value (day 19) was 3.41 g/L, the “Average Glucose” value (day 19) was 33.8 g/L and the “Average Butanol” value (day 20) was 2.69 g/L. For the same substance, the “Average Glucose” value (day 20) was 40.3 g/L.
